Test results taken from patent US8409550B2, “Method for treating skin with retinoids and retinoid boosters” (Unilever Home & Personal Care, USA, Division of Conopco, …, priority 2000, dated 2013).
Values joined by “and” are separate entries in the source; they are usually repeats but may differ in a detail not shown here. Identical values can stand only once. Like-named read-outs stand apart in the source and are kept apart here.

Tests used:
[1] = tested on: ARAT; assay: Assay for ARAT activity, bovine RPE microsomes (to identify B1); assay type: biochemical; conditions: for % Inhibition ARAT (100 jm): compound 100 jm
Procedure: (§1) 2.1 Isolation of RPE Microsomes (Modified from (1))
(§2) 50 frozen hemisected bovine eyecups, with the retina and aqueous humor removed were obtained from W. L. Lawson Co., Lincoln, Nebr., USA. The eyes were thawed overnight and the colored iridescent membrane was removed by peeling with forceps. Each eyecup was washed with 2× 0.5 mL cold buffer (0.1M PO4/1 mM DTT/0.25N sucrose, pH 7) by rubbing the darkly pigmented cells with an artist's brush or a rubber policeman. The cell suspension was added to the iridescent membranes and the suspension was stirred for several minutes in a beaker with a Teflon stir bar.
(§3) The cell homogenate was centrifuged for 30 min. at 20,000 g (Sorvaal model RC-5B centrifuge with an SS34 rotor in 2.5×10 cm tubes at 14,000 RPM). The resulting supernatant was subjected to further centrifugation for 60 min. at 150,000 g (Beckman model L80 Ultracentrifuge with an SW50.1 rotor in 13×51 mm tubes at 40,000 RPM). The resulting pellets were dispersed into ˜5 mL 0.1M PO4/5 mM DTT, pH 7 buffer using a Heat Systems Ultrasonics, Inc. model W185D Sonifier Cell Disrupter, and the resulting microsomal dispersion was aliquoted into small tubes and stored at −70° C. The protein concentrations of the microsomes were determined using the BioRad Dye binding assay, using BSA as a standard.
(§4) 2.3 Assay for ARAT and LRAT Activity (to Identify B1)
(§5) The procedure below was a modification of a method described in the literature (2). The following buffer was prepared and stored at 4° C.: 0.1M PO4 5 mM dithiothreitol, pH 7.0 (PO4/DTT). On the day of the assay, 2 mg BSA per mL of buffer was added to give a PO4/DTT/BSA working buffer. 1 mM retinol substrate was prepared in acetonitrile and stored in amber bottles under nitrogen gas at −20° C. Solutions of 4 mM Palmitoyl-CoA in working buffer (stored in aliquots) and 4 mM dilauroyl phosphatidyl choline in ethanol were prepared and stored at −20° C. Inhibitors were prepared as 10 mM stock solutions in H2O, ethanol, acetonitrile or DMSO. The quench solution was prepared using pure ethanol containing 50 μg/mL butylated hydroxytoluene (BHT), and a hexane solution containing 50 μg/mL BHT was used for the extractions.
(§6) The mixture was incubated for 5 min. at 37° C. to equilibrate the reaction temperature and then 5 μL 1 mM retinol was added. The vials were capped, vortexed for 5 seconds and incubated for 30-90 minutes at 37° C. The reaction was quenched by adding 0.5 mL ethanol/BHT. The retinoids were extracted by adding 3 mL hexane/BHT, vortexing the tubes for several seconds several times and centrifuging the tubes at low speed for 5 min. to quickly separate the layers. The upper hexane layer was removed into a clean vial, and the aqueous layer re-extracted with another 3 mL hexane/BHT, as described above. The hexane layers were combined, and the hexane evaporated by drying at 37° C. under a stream of nitrogen gas on a heated aluminum block. The dried residue was stored at −20° C. until HPLC analysis. The amount of retinyl palmitate and retinyl laurate was quantitated for ARAT and LRAT activity, respectively, by integration of the HPLC signal as described below.
(§7) Note that the incubation solution contains 40 μM acyl donor, 100 μM or less inhibitor, 10 uM retinol, approximately 30 μg/mL microsomal protein, and nearly 0.17 PO4/pH 7/5 mM DTT/2 mg/mL BSA. All steps subsequent to the addition of retinol were done in the dark or under amber lights.
(§8) Samples for retinoid quantitation by HPLC were prepared by dissolving the residue in each vial with 100 μL of methanol. […] Aliquots of 60 μL were injected immediately and analysed for retinoid content.
(§9) Two HPLC protocols were used for retinoid analysis.
(§10) These protocols were selected based on their ability to clearly resolve pertinent retinoid acids, alcohols, aldehydes, and/or esters for each assay and relative quickness of separation.

[2] = molecular target: T1, LRAT (Bos taurus, UniProt Q9BGL2); assay: Assay for LRAT activity, bovine RPE microsomes (to identify B1); assay type: biochemical; conditions: for % Inhibition LRAT (100 jm): compound 100 jm; for % Inhibition LRAT (10 jm): compound 10 jm
T1 construct: followed by approximately 15 μg of RPE microsomal protein; tissue W. L. Lawson Co., Lincoln, Nebr., USA (eyecups); host or cells: bovine retinal pigment epithelium microsomes
T1 sequence (Q9BGL2 1-230): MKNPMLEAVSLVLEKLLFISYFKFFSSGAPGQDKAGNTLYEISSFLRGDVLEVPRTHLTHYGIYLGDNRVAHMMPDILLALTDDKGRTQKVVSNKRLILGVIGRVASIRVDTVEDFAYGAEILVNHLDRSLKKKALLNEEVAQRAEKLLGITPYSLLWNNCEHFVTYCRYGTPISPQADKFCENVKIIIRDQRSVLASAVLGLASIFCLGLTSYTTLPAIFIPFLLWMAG
Procedure: as §1, §2, §3, §4, §5, §6, §7, §8, §9, §10

[3] = tested on: transglutaminase (TGase I); assay: Transglutaminase (Tgase) ELISA assay in cultured keratinocytes with retinol and boosters; assay type: cell-based, human; conditions: for TG as % C Compd 1 / TG as % C, Compd 3 / TG as % C Compd 2: concentration one log below IC20; for IC20: IC20 (80% of control); for TG as % C, Compd 3: Compound 3 alone
Procedure: For this reason, a transalutaminase (Tgase) assay was utilised.
Thus TGase I is a useful marker of epidermal keratinocyte differentiation with high TGase I levels indicating a more differentiated state. An ELISA based TGase I assay, using a TGase I antibody, was used to assess the state of differentiation of the cultured keratinocytes in the examples that follow.
Keratinocytes (cultured as described above) were plated in 96 well plates at a density of 4,000-5,000 cells per well in 200 μl media. After incubation for two to three days, or until cells are ˜50% confluent, the media was changed to media containing test compounds (five replicates per test). The cells were cultured for a further 96 hours after which time the media was aspirated and the plates stored at −70° C. Plates were removed from the freezer, and the cells were washed twice with 200 μl of 1×PBS. The cells were incubated for one hour at room temperature (R/T) with TBS/5% BSA (wash buffer, bovine serum albumin). Next the TGase primary antibody was added: 50 μl of monoclonal anti-Tgase I Ab B.C. diluted 1:2000 in wash buffer. The primary antibody was incubated for 2 hours at 37° C. and then rinsed 6× with wash buffer. Cells were then incubated with 50 μl of secondary antibody (Fab fragment, peroxidase conjugated anti-mouse IgG obtaining from Amersham) diluted 1:4,000 in wash buffer for two hours at 37° C., then rinsed three times with wash buffer. Following the rinse with washing buffer, the cells were rinsed 3× with PBS. For colourimetric development, the cells were incubated with 100 μl substrate solution (4 mg o-phenylenediamine and 3.3 μl 30% H2O2 in 10 ml 0.1M citrate buffer pH 5.0) for exactly five minutes, R/T, in darkness (under aluminum foil). The reaction was stopped by the addition of 50 μl 4 N H2SO4. […] Out of the five replicates, four were treated with both antibodies, the fifth one was use as a Tgase background control. Tgase levels were determined and expressed as percentage control.
A suspension of keratinocytes was prepared at a concentration of 3000 cells/200 μl/well in KGM medium (Used 3×10^5 cells/12 ml media in each microtitre plate)
200 μl of the keratinocyte suspension was transferred into each of the inner 60 wells only.
Each plate was incubated at 37° C. and 5% CO2 for 3 days or until cells are ˜50% confluent.
Stock solutions of the samples were prepared in DMSO.
The samples were diluted to desired concentration with the final assay concentration of DMSO being 0.1%.

[4] = tested on: Retinal Reductase; assay: Assay for retinal reductase activity, rat liver microsomes (to identify B3); assay type: biochemical; conditions: test compound final 100 μM
Procedure: 2.5 Assay for Retinal Reductase Activity (to Identify B3)
All stock solution were prepared as above with the following substitutions:
10 mM all trans Retinaldehyde (Sigma R2500) in DMSO—instead of retinol.
In a two-dram glass vial with screw cap, add the following in order:
Buffer to give a final volume of 400 μl
25 μl diluted Microsomes (final=100 μg)—use boiled Microsomes for controls and regular Microsomes for test samples.
4 μl of 200 mM NADPH (final=2 mM)
1 μl of 40 mM test compound (final=100 μM)
Follow the same incubation and extraction procedure as detailed above.
as §8
(§11) This system consisted of a 20 mins. linear gradient from 68:32 (v/v) methanol/water containing 10 mM ammonium acetate to 4:1(v/v) methanol:dichloromethane followed by a 5 mins. hold at a flow race of 1 mL/min. The column eluate was monitored from 300 nm to 400 nm.

[5] = tested on: cytochrome P450 dependent retinoic acid oxidation; assay: Assay for NADPH dependent retinoic acid oxidation, rat liver microsomes (to identify B5); conditions: for % Inhibition Retinoic Acid (10 μM): compound 10 μM; for % Inhibition Retinoic Acid (100 μM): compound 100 μM
Procedure: The procedure below is a modification of a method described in the literature (4). The following assay buffer was prepared and stored at 4° C.: 0.1M PO4/0.1 mM EDTA/5 mM MgCl2, off 7.4. On the day of the assay, a 60 mM NADPH solution in buffer was prepared. Inhibitor stocks, acidified ethanol/BHT quench solution, and hexane/BHT were prepared as described above.
Incubation was continued for 60 mins. at 37° C.—the vials were not capped, since the oxidation process required molecular O2 in addition to NADPH. Quenching was carried out with acidified ethanol/BHT and extraction was carried out with hexane/BHT as described above.
All steps subsequent to the addition of retinoic acid were done in the dark or under amber lights.
as §8, §11

[6] = compound tested individually in the presence of 10^-7 M retinol
[7] = in the presence of 10^-7M retinol

Brahmanol
% Inhibition ARAT (100 jm) [1]: 70%
% Inhibition LRAT (100 jm) [2]: 75%

Santanol
% Inhibition ARAT (100 jm) [1]: 15%
% Inhibition LRAT (100 jm) [2]: 43%

CC(=O)CCC1C(C)=CCCC1(C)C (stereo not drawn) [Dihydro Alpha-Ionone]
% Inhibition ARAT (100 jm) [1]: 13%
% Inhibition LRAT (100 jm) [2]: 18%

CCCCCCCCCCCCCC(=O)O [Myristic Acid]
TG as % C Compd 1 ([3]; Compound 1 alone, in the presence of 10^-7M retinol): 79 % C
IC20 [3, 6]: 10.5 µM
TG as % C Compd 1 ([3]; compound 1 alone, with retinol): 110 % C
% Inhibition Retinal Reductase [4]: 26%

CC1(C)[C@@H](OC(=O)CCC(=O)O)CC[C@]2(C)[C@H]3C(=O)C=C4[C@@H]5C[C@@](C)(C(=O)O)CC[C@]5(C)CC[C@@]4(C)[C@]3(C)CC[C@@H]12 [Carbenoxolone, reference compound]
TG as % C, Compd 3 [3, 7]: 88 % C
IC20 [3, 6]: 0.2 µM
TG as % C Compd 2 ([3]; compound 2 alone, with retinol): 164 % C
% Inhibition Retinal Reductase [4]: 26% +/− 2

CCCCCCCC(=O)OCC(COP(=O)(O)OCCN)OC(=O)CCCCCCC (stereo not drawn) [Dioctylphosphatidyl Ethanolamine]
% Inhibition ARAT (10 jm) ([1]; compound 10 jm): 23%
% Inhibition LRAT (10 jm) [2]: 0%
% Inhibition LRAT (100 jm) [2]: 17% +/− 17

CCCCC/C=C\C/C=C\CCCCCCCC(=O)N(CCO)CCO [Linoleoyl Diethanolamide]
% Inhibition Overall TG (—ROH/RE) ([3]; % (booster+retinol inhibition/control inhibition) − % (ROH inhibition/control inhibition)): 59%
% Inhibition LRAT (10 jm) [2]: 11% +/− 9
% Inhibition LRAT (100 jm) [2]: 51% +/− 15

CCCCC/C=C\C/C=C\CCCCCCCC(=O)O [Linoleic Acid]
TG as % C, Compd 3 [3, 7]: 11 % C
IC20 [3, 6]: 89.5 µM
% Inhibition Retinal Reductase [4]: 62% +/− 2

CCCCC/C=C\C/C=C\C/C=C\C/C=C\CCCC(=O)O [Arachidonic Acid]
% Inhibition Retinal Reductase [4]: 49%

O=c1c(O)c(-c2ccc(O)c(O)c2)oc2cc(O)cc(O)c12 [Quercetin]
% Inhibition Retinoic Acid (10 μM) [5]: 40%
% Inhibition Retinoic Acid (100 μM) [5]: 74%
TG as % C, Compd 3 [3, 7]: 92 % C
IC20 [3, 6]: 51.1 µM

Clc1ccc(COC(Cn2ccnc2)c2ccc(Cl)cc2Cl)c(Cl)c1 (stereo not drawn) [Miconazole, reference compound]
% Inhibition Retinoic Acid (10 μM) [5]: 74%
% Inhibition Retinoic Acid (100 μM) [5]: 86%
TG as % C Compd 2 ([3]; Compound 2 alone, in the presence of 10^-7M retinol): 92 % C
TG as % C, Compd 3 [3, 7]: 82 % C
IC20 [3, 6]: 0.0842 µM

CC(C)(C(=O)c1cccnc1)c1cccnc1 [2-Methyl-1,2-di-3-Pyridyl-1-Propane]
% Inhibition Retinoic Acid (100 μM) [5]: 47%

Alpha-Methyl Ionone
% Inhibition ARAT (100 jm) [1]: 67%
% Inhibition LRAT (100 jm) [2]: 77%

CC=CC(=O)C1CCC(C)(C)C=C1C (stereo not drawn) [Isodamascone]
% Inhibition ARAT (100 jm) [1]: 80%
% Inhibition LRAT (100 jm) [2]: 92%

C/C=C\C(=O)C1C(C)=CCCC1(C)C (stereo not drawn) [Alpha-Damascone]
IC50 ([3]; B1 table, booster concentration which with 10^−7 M retinol inhibits TGase by 50%, same values in the 19th table (Molar), read-out: Overall TG (IC 50)): 335 µM
IC20 [3, 6]: 169 µM
IC50 ([3]; Tgase inhibition, compound tested individually in the presence of 10^-7 M retinol, read-out: IC50): 335 µM
TG as % C Compd 1 ([3]; compound 1 alone, with retinol, listed as Alpha-demascone): 95 % C and 112 % C
% Inhibition LRAT (10 jm) [2]: 87% +/− 6
% Inhibition LRAT (100 jm) [2]: 98% +/− 1

Isocyclogeraniol
% Inhibition ARAT (100 jm) [1]: 18%
% Inhibition LRAT (100 jm) [2]: 16%

Glycerol-PCA-Oleate
% Inhibition ARAT (100 jm) [1]: 41% +/− 6
% Inhibition LRAT (100 jm) [2]: 58% +/− 2
